This is an account of results in ChEMBL document CHEMBL4610087, “Swinhopeptolides A and B: Cyclic Depsipeptides from the Sponge Theonella swinhoei That Inhibit Ras/Raf Interaction” (J Nat Prod, 2020).

Structures are written as SMILES.

This test can be described thus: Inhibition of Ras-Raf (unknown origin) protein-protein interaction incubated for 4 hrs by cell based-BRET assay. Conditions: Homo sapiens. (In BRET a luciferase serves as donor, and the signal depends on an acceptor being close.)

`C/C=C(\NC(=O)[C@@H](CO)NC(=O)[C@@](C)(O)[C@H](O)/C=C\C(C)=C\[C@H](C)CC)C(=O)N[C@H](C(=O)N[C@H](C(=O)N[C@H]1C(=O)N[C@H](COC)C(=O)NCC(=O)N[C@@H](C)C(=O)N(C)[C@@H]([C@@H](C)O)C(=O)N[C@H]([C@H](OC)c2ccc(O)cc2)C(=O)N2CCC[C@H]2C(=O)O[C@@H]1C(C)C)[C@@H](C)[C@@H](C)C(N)=O)[C@H](C)N` yielded an IC50 of 5.8 µM. The figure for `C/C=C(\NC(=O)[C@@H](CO)NC(=O)/C(C)=C/C=C/C(C)=C/C(C)CC)C(=O)N[C@H](C(=O)N[C@H](C(=O)N[C@H]1C(=O)N[C@H](COC)C(=O)NCC(=O)N[C@@H](C)C(=O)N(C)[C@@H]([C@@H](C)O)C(=O)N[C@H]([C@H](OC)c2ccc(O)cc2)C(=O)N2CCC[C@H]2C(=O)O[C@@H]1C(C)C)[C@@H](C)[C@@H](C)C(N)=O)[C@H](C)N` (some centres not stated) is 8.5 µM.

Broadly, the IC50 is the concentration needed to halve the response being measured. Low readings indicate inhibition by little substance, high ones a need for much substance.
